Earlier results on 1 compound are cited in patent US20110105434A1, “2-AMINO PURINE DERIVATIVES AND THEIR USE AS ANTI-HERPETIC AGENTS” (priority 2007, published 2011).

For this series the following is noted: oral maximum dose of 800 mg 5 times per day, most patients; cited from earlier work.

Regarding `Nc1nc2c(ncn2COCCO)c(=O)[nH]1` [acyclovir, 2-amino-9-1,-dihydro-9-[(2-hydroxyethyl)methyl]-6H-purin-6-one], the blood level result is “about 1.61 ng/mL”.
